Literature values as cited in patent US11554108B2, “Methods and compositions for treating cutaneous fungal infections” (Xeropedix, Inc., priority 2016, dated 2023).
In brackets after ≈: the same amount, converted by molar mass. Where two headings read alike, the source gives them in different places.

Key:
[1] = target: transient receptor potential vanilloid 1 (TRPV1) cation channel (Homo sapiens, UniProt Q8NER1); settings: lowered from approximately 42° C.
[2] = test system: T. rubrum
[3] = not given; remark: listed apart in the source
[4] = test system: tinea pedis
[5] = test system: T. mentagrophytes

Sequence of transient receptor potential vanilloid 1 (TRPV1) cation channel (Q8NER1 whole entry): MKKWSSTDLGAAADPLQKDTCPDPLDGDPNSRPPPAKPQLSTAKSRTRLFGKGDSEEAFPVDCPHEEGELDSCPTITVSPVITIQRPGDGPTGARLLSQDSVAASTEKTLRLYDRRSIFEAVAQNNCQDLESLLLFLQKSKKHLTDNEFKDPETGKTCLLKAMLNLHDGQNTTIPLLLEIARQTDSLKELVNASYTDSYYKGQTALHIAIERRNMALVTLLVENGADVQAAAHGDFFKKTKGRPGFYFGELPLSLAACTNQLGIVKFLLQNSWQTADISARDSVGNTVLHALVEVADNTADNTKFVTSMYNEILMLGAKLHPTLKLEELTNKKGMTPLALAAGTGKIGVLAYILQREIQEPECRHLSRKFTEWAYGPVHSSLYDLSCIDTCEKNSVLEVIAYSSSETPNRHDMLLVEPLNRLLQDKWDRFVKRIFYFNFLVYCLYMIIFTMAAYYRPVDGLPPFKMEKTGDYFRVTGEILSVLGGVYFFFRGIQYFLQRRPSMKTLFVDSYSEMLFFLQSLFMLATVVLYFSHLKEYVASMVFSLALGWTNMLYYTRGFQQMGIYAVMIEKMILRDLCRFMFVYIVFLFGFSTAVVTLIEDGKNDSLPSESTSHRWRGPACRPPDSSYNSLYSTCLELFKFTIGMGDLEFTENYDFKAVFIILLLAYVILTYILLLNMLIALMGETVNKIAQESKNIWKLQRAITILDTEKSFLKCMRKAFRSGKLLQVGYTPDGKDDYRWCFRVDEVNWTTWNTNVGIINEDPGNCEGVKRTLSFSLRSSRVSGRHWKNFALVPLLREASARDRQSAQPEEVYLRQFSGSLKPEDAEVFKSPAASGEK

Compound: CCO [Ethanol]
- threshold temperature at which TRPV1 signals excessive heat [1]: 34 °C

Compound: CN(C/C=C/C#CC(C)(C)C)Cc1cccc2ccccc12 [terbinafine]
- stratum corneum concentration (24 hours after a single application of 1% terbinafine cream): 37 ng/cm^2
- concentration of terbinafine in the stratum corneum (24 hours after application of 1% terbinafine cream, converted with 1 ng/cm^2=4 μg/ml): approximately 148 μg/ml
- minimum fungicidal concentration against T. rubrum [2]: 3 ng/mL (≈ 0.0103 µM)
- rate of absorption, maximum concentration, and half-life in the skin ([3]; ethanol gel compared to a standard cream formulation): improve
- percutaneous terbinafine absorption ([3]; in vivo, ethanol solution compared to isopropyl myristate solution): enhanced

Compound: [Cl][Al]([Cl])[Cl] [aluminum chloride]
- reduction of unpleasant symptoms of tinea pedis ([4]; 30% aluminum chloride solution): effective at reducing unpleasant symptoms
- resolution of the infection ([4]; 30% aluminum chloride solution): did not resolve the infection entirely
- inhibition of T. mentagrophytes in an in vitro MIC test ([5]; 10% aluminum chloride, equal to 100,000 μg/ml): no inhibition
- inhibition of T. mentagrophytes in an in vitro MIC test ([5]; 20% aluminum chloride, equal to 200,000 μg/ml): inhibited the fungus

Compound: aluminum chlorohydrate
- effectiveness against tinea pedis relative to aluminum chloride ([4]; in vivo): less effective than aluminum chloride
